The values below come from publication PMC11461078 (Oxidative Medicine and Cellular Longevity, 2024).

Series [1] deals with CCF-STTG1 cells. Description: Cell viability (MTT) under oxidative stress (200 µM H2O2 pretreatment). It counts as cell-based, human. The conditions noted are these: H2O2 200 μM. As to the method: In a second set of experiments, the CCF-STTG1 cell line was pretreated with 200 µM H2O2 for 30 min to explore the effects of the combination under oxidative stress conditions compared to the single agents by analysing cell viability, ROS, and NO productions. In addition, inflammatory biomarkers (TNFα and IL-2), BDNF production, and intracellular apoptotic and neurodegenerative markers activated were also analysed by ELISA kit.
A 96-well plate was used to measure cell viability of CCF-STTG1 cells after each stimulation using MTT-based In Vitro Toxicology Assay Kit (Merck Life Science, Milan, Italy), as reported in the literature. After stimulating cells, 1% MTT dye was incubated at 37°C in an incubator with 5% CO2 and 95% humidity, and purple formazan crystals were dissolved in MTT solubilisation solution after 2 hr. In addition, during the quantification, the background interference due to the extract was considered by making an empty sample (without cells but with the treatment), which was subtracted. To assess cell viability, absorbance at 570 nm with 690 nm correction was measured using a spectrometer (Infinite 200 Pro MPlex, Tecan, Männedorf, Switzerland) and compared to the control (0 line, which is 100% viable cells) and expressed in percentage.

The test system of series [2] is CCF-STTG1 cells. Description: ROS production (cytochrome C reduction) under oxidative stress. It is filed as cell-based, human. Particulars: for reduction of ROS production compared to H2O2 200 μM: H2O2 200 μM pretreatment, 24 hr treatment, green tea 100 μM, saffron 25 μM, citicoline 100 μM, trans-R 1 µM, MIX. The protocol:
In a second set of experiments, the CCF-STTG1 cell line was pretreated with 200 μM H2O2 for 30 min to explore the effects of the combination under oxidative stress conditions compared to the single agents by analysing cell viability, ROS, and NO productions. In addition, inflammatory biomarkers (TNFα and IL-2), BDNF production, and intracellular apoptotic and neurodegenerative markers activated were also analysed by ELISA kit. A standard procedure based on cytochrome C reduction on CCF-STTG1 cells quantified superoxide anion release. After treatment, 100 μL of cytochrome C (1 mg/mL, Merck Life Science, Rome, Italy) and 100 μL of superoxide dismutase (0.1 mg/mL, Merck Life Science, Rome, Italy) were added to each sample for 30 min in an incubator. At 550 nm, a spectrophotometer (Infinite 200 […], Männedorf, Switzerland) assessed absorbance in cell culture supernatants. O2 rate was represented as the mean SD (%) of nanomoles per decreased cytochrome C per microgram of protein relative to the control (0 line).

Another series concerns BDNF. Description: BDNF quantification ELISA under oxidative stress. It is filed as cell-based, human. Particulars: H2O2 200 μM. As to the method:
(§1) Human BDNF ELISA Kit (Thermo ScientificTM, Waltham, MA, United States) quantified BDNF in CCF-STTG1 cell supernatants following the manufacturer's instructions. Each well received a biotinylated detection antibody, and the plate was incubated at room temperature for 1 hr. After 45 min of HRP-conjugated streptavidin incubation, TMB substrate solution was added for 30 min, and a stop solution terminated the reaction. To calculate BDNF concentration, absorbance was measured at 450 nm using a spectrometer (Infinite 200 Pro MPlex, Tecan, Männedorf, Switzerland) and compared to the standard curve (0.066–16 ng/mL). The data are presented as mean ± SD (%) compared to the untreated control sample. The cells were also given 10 ng/mL BDNF as a positive control.
as §1, with “Elisa” for “ELISA”, “The data are presented as mean ± SD (%) compared to the untreated control sample. The cells were also given 10 ng/mL BDNF as a positive control.” left out

Series [3] concerns BBB in vitro model (CCF-STTG1 cocultured with HUVEC on Transwells). Particulars: human.
The next series relates to human. The arrangement: method as in PMID 23403474. Particulars: 500 mg per day for 2 weeks; cited from earlier work.
The test system of another series is rats. The arrangement: method as in PMID 29470767. The conditions noted are these: tramadol toxicity, 30 mg/kg orally for 28 consecutive days; cited from earlier work.
Another series deals with pTau. The series can be described thus: Tau (Phospho) [pS199] ELISA under oxidative stress. It counts as cell-based, human. Particulars: H2O2 200 μM pretreatment. As to the method:
Tau (Pospho) protein was investigated by Tau (Phospho) [[…]] Human ELISA Kit (Thermo ScientificTM, Waltham, MA, USA) on CCF-STTG1 cell lysates. In summary, 100 μL of each sample was added to the plate, incubated at 37°C for 90 min, removed, and washed three times. Next, add 100 μL of detection solution A to each well and incubate at 37°C for 45 min. Post-incubation, wash wells, add 100 μL detection solution B, and incubate at 37°C for 45 min. After adding 90 μL of substrate solution, the plate was incubated at 37°C for 20 min in the dark. The reaction was stopped with 50 μL of stop solution, and the absorbance was measured at 450 nm using a spectrometer (Infinite 200 […], Männedorf, Switzerland). Results are shown as mean SD (%) relative to the control, and concentration is reported in ng/mL by comparing data to the standard curve (15.6-1,000 pg/mL).

Like-named read-outs stand apart in the source and are kept apart here.

For `OO` [H2O2], the “decrease in cell viability compared to the control” value with CCF-STTG1 cells [1] is given as “about 22%”. In addition, in the series with CCF-STTG1 cells [2] (H2O2 200 μM), the “increase in ROS production compared to the control” value is given as “about 42%”. Besides, the “reduction of BDNF production vs control” value with BDNF is ~ 30%.
Turning to `C[N+](C)(C)CCOP(=O)(O)OP(=O)([O-])OC[C@H]1O[C@@H](n2ccc(N)nc2=O)[C@H](O)[C@@H]1O` [citicoline, cytidine diphosphate (CDP)-choline], in the series with CCF-STTG1 cells [2], the “reduction of ROS production compared to H2O2 200 μM” value is given as “about 37%”. In addition, the “Permeability values (Papp)” value in series [3] (4 h) amounted to 0.2 ×10⁻⁶ cm/s; in series [3] (12 h) it was 0.58 ×10⁻⁶ cm/s; in series [3] (24 h) it was 0.44 ×10⁻⁶ cm/s. Further, the “serum malondialdehyde (MDA) levels” value in the series on human was “significantly decreased”. The “vigilance, visual working memory, oxidative stress markers compared to placebo” value in the series with human was “improve human vigilance, visual working memory, and oxidative stress markers”.
Regarding `CC(/C=C/C=C(\C)C(=O)O[C@@H]1O[C@H](CO[C@@H]2O[C@H](CO)[C@@H](O)[C@H](O)[C@H]2O)[C@@H](O)[C@H](O)[C@H]1O)=C\C=C\C=C(C)\C=C\C=C(/C)C(=O)O[C@@H]1O[C@H](CO[C@@H]2O[C@H](CO)[C@@H](O)[C@H](O)[C@H]2O)[C@@H](O)[C@H](O)[C@H]1O` [crocin], in the series on rats, the learning and memory result was “improved learning and memory”.
With `Oc1ccc(/C=C/c2cc(O)cc(O)c2)cc1` [trans-R, trans-Resveratrol], the “reduction of ROS production compared to H2O2 200 μM” value with CCF-STTG1 cells [2] is on record as “about 46%”. For the same compound, in the series with pTau, the “pTau expression (in words)” value is on record as “inhibits its expression, similar to the MIX”. The “Permeability values (Papp)” value in series [3] (4 h) was 0.2 ×10⁻⁶ cm/s; in series [3] (12 h), 0.83 ×10⁻⁶ cm/s; in series [3] (24 h), 0.53 ×10⁻⁶ cm/s.
